Data on four molecules can be found in US9193978B2, “Production of alkenes by combined enzymatic conversion of 3-hydroxyalkanoic acids” (Scientist of Fortune, S.A., priority 2010, dated 2015).

For series [1], the target named is T1, Picrophilus torridus MDP decarboxylase, SEQ ID NO: 1 (Picrophilus torridus, UniProt Q6KZB1).
T1 construct: His6 (inserted after the initiator methionine) (N); made in house; host or cells: Escherichia coli BL21(DE3)
T1 sequence (Q6KZB1 1-324): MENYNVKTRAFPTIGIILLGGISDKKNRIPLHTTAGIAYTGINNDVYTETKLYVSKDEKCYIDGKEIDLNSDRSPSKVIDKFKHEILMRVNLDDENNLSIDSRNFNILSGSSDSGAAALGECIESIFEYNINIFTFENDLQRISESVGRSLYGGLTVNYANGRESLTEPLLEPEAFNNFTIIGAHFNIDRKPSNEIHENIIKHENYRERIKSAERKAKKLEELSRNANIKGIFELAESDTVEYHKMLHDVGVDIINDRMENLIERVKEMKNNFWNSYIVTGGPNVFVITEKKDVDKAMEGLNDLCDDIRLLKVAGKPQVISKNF
Put plainly: Phosphotransferase activity (ADP release from 3-hydroxyisovalerate and ATP), pyruvate kinase/lactate dehydrogenase coupled assay. The format is biochemical. The settings on record: 40° C., pH 7.0, 5 mM ATP, 0-50 mM HIV. The source says:
FIG. 12: Isobutene production from 3-hydroxyisovalerate in the following assays: • Without enzyme • In the presence of S. mitis MDP decarboxylase (SEQ ID NO:10) • In the presence of Th. acidophilum MDP decarboxylase (SEQ ID NO:2) • In the presence of both Th. acidophilum (SEQ ID NO:2) and S. mitis (SEQ ID NO:10) enzymes.
(§1) The release of ADP that is associated with IBN production from HIV was quantified using the pyruvate kinase/lactate dehydrogenase coupled assay (FIG. 10). The MDP decarboxylases from P. torridus (SEQ ID NO:1), Th. Acidophilum (SEQ ID NO:2), S. infantarius (SEQ ID NO:7), S. mitis (SEQ ID NO:10) were evaluated for their ability to phosphorylate HIV, releasing ADP.
(§2) The studied enzymatic reaction was carried out under the following conditions at 40° C.:
(§3) 0.5 mM Phosphoenolpyruvate
(§4) 3 U/ml Lactate dehydrogenase
(§5) 0-50 mM 3-Hydroxyisovalerate (HIV)
(§6) The pH was adjusted to 7.0.
(§7) Each assay was started by addition of particular enzyme (at a concentration from 0.05 to 1 mg/ml) and the disappearance of NADH was monitored by following the absorbance at 340 nm.
(§8) Assays with MDP decarboxylases from the P. torridus phylum as well from the Streptococcus genus gave rise to a reproducible increase in ADP production in the presence of HIV.

Series [2] has as its target T2, Thermoplasma acidophilum MDP decarboxylase, SEQ ID NO: 2 (Thermoplasma acidophilum, UniProt Q9HIN1).
T2 construct: Th; His6 (inserted after the initiator methionine) (N); made in house; host or cells: Escherichia coli BL21(DE3)
T2 sequence (Q9HIN1 1-318): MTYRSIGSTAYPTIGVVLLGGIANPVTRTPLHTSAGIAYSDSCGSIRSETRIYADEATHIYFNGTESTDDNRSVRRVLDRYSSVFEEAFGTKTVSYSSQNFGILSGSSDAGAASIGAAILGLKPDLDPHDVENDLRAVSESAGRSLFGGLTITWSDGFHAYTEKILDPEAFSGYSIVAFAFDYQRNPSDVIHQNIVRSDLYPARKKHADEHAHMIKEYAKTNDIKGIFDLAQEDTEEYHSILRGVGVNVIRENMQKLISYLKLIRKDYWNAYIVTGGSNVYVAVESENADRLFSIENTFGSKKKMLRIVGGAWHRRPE
The series is described as above. The format is biochemical. The note with it: 40° C., pH 7.0, 5 mM ATP, 0-50 mM HIV. The method, then: as §1, §2, §3, §4, §5, §6, §7, §8

Series [3] concerns the target T3, Streptococcus mitis MDP decarboxylase, SEQ ID NO: 10 (Streptococcus mitis, UniProt A0ACG7RFV4). Put plainly: Kinetic parameters of isobutene production from 3-phosphonoxyisovalerate (GC). Format: biochemical. The settings on record: pH 7.5, 37° C., 44 h, 40 mM ATP, 0-100 mM 3-phosphonoxyisovalerate. The method, then:
The kinetic parameters of isobutene production were measured under the following conditions:
0-100 mM 3-phosphonoxyisovalerate
(§9) The pH was adjusted to 7.5
The reaction was initiated by addition of 1 mg of purified MDP decarboxylase from S. mitis (SEQ ID NO:10) to 0.5 ml of reaction mixture. The mixture was then incubated without shaking at 37° C. for 44 h in a sealed vial of 2 ml (Interchim).
(§10) One ml of the gaseous phase was collected and injected into a Varian 430-GC gas chromatograph equipped with an FID detector and a CP SilicaPlot column (Varian). Commercial isobutene was used as reference.

In series [4] the target is T3, Streptococcus mitis MDP decarboxylase, SEQ ID NO: 10. The series can be described thus: Effect of ATP on isobutene production from 3-phosphonoxyisovalerate (GC). Format: biochemical. The settings on record: 10 mM ATP vs 0 mM ATP, 25 mM PIV, pH 7.5, 37° C., 26 h. The method, then: The assays of isobutene production were carried out under the following conditions:
0 mM ATP (assay No1 and No2)
10 mM ATP (assay No3 and No4)
25 mM 3-phosphonoxyisovalerate
as §9
The reaction was initiated by addition of 2 mg of purified MDP decarboxylase from S. mitis (SEQ ID NO:10) to 0.5 ml of reaction mixture. Control reactions were run in the absence of enzyme (assays No1 and No3).
The mixture was incubated without shaking at 37° C. for 26 h in a sealed vial of 2 ml (Interchim).
as §10

Substrate in series [5]: CC(C)(O)CC(=O)O
The series can be described thus: Phosphotransferase activity (ADP release from 3-hydroxyisovalerate and ATP), pyruvate kinase/lactate dehydrogenase coupled assay. The format is biochemical, Streptococcus infantarius. The note with it: other: 40° C., pH 7.0, 5 mM ATP, 0-50 mM HIV. As for the experimental part: as §1, §2, §3, §4, §5, §6, §7, §8

A word on the Km: it is the substrate concentration at which the rate is half of its maximum. As usually defined, the kcat is the maximal rate divided by the concentration of active sites. As usually defined, the kcat/Km is the turnover number divided by the Michaelis constant.

In the case of `CC(C)(O)CC(=O)O` [3-hydroxyisovalerate], the results for the Km in series [1] and in series [2] were 9.17 mM and 4.02 mM, respectively.

On to `CC(C)(CC(=O)O)OP(=O)(O)O` [3-phosphonoxyisovalerate], for which, in series [3], the Km was greater than 60 mM and the kcat result is given as “at least 1.3×10^−3 sec^−1”.

For `Nc1ncnc2c1ncn2[C@@H]1O[C@H](COP(=O)(O)OP(=O)(O)OP(=O)(O)O)[C@@H](O)[C@H]1O` [ATP], the “increase of isobutene production from 3-phosphonoxyisovalerate (PIV) on addition of ATP” value in series [4] was determined as 120 fold.

B1: Streptococcus infantarius MDP decarboxylase, SEQ ID NO: 7 (Streptococcus infantarius subsp. infantarius ATCC BAA-102) (protein)
chain: MDRKIVTVKSYANIAIIKYWGKADAAKMIPATSSISLTLENMFTTTSVSFLPDSASHDEFYINGVLQDDKEHAKISAIIDQYRGQRSEYVKVETSNNMPTAAGLSSSSSGLSALVKACNELFETGLTRAELAQKAKFASGSSSRSFFGPLAAWDKDSGEVYPVQTDLKLAMIMLVLSDSKKSISSREGMKRCVETSTTFADWVKQSEQDYKDMLGYLKNNDFERVGELTERNALAMHDTNTHANPPFNYLTEESYKAMEFVKQLRSEGEKCYFTMDAGPNVKVLCLEEDLERLTKRFEENYRVIVSRTKEL
Take B1: in series [5], the Km stood at 13.4 mM, the kcat is 0.03 s⁻¹ and the kcat/Km stood at 2 M⁻¹ s⁻¹.
